According to EP2236511A2, “LIGANDS OF ALPHA-ADRENOCEPTORS AND OF DOPAMINE, HISTAMINE, IMIDAZOLINE AND SEROTONIN RECEPTORS AND THE USE THEREOF” (priority 2007, dated 2009):
Structures can show the parent of a compound that is named as a salt. Where two headings read alike, the source gives them in different places.

Tests used:
human D3 receptor = biological target: T1, human D3 receptor (Homo sapiens, UniProt P35462); test: Radioligand binding to dopamine receptor D3 ([3H] Spiperone, CHO membranes)
T1 construct: expressed in transfected cells; host or cells: CHO
T1 sequence (P35462 whole entry): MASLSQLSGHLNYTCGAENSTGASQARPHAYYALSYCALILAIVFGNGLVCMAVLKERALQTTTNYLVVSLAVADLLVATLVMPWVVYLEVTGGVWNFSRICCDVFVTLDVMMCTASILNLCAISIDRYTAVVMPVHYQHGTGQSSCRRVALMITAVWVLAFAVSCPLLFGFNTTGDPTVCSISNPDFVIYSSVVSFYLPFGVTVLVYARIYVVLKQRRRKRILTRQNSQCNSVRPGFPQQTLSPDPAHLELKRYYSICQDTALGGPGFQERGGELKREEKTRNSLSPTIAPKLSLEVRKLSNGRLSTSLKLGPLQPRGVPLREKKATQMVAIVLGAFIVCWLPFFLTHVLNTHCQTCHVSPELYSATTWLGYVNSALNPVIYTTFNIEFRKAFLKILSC
Excerpt: For this purpose sDNA of human D3 receptor is expressed in CHO cells, as it was described in [Sokoloff P, Giros B, Martres M-P, Bouthenet M-L and Schwartz J-C. Molecular cloning and characterization of novel dopamine receptor (D3) as target for neuroleptics. Nature. […] Molecular cloning and characterization of novel dopamine receptor (D3) as target for neuroleptics. Nature. […] Spiperone is used as positive control.

human α1D receptor = biological target: T2, human α1D receptor (Homo sapiens, UniProt P25100); test: Radioligand binding to adrenergic receptor α1D ([3H] Prazosin, HEK-293 membranes); details: for nH: Receptor α1D
T2 construct: expressed in transfected cells; host or cells: HEK-293
T2 sequence (P25100 1-572): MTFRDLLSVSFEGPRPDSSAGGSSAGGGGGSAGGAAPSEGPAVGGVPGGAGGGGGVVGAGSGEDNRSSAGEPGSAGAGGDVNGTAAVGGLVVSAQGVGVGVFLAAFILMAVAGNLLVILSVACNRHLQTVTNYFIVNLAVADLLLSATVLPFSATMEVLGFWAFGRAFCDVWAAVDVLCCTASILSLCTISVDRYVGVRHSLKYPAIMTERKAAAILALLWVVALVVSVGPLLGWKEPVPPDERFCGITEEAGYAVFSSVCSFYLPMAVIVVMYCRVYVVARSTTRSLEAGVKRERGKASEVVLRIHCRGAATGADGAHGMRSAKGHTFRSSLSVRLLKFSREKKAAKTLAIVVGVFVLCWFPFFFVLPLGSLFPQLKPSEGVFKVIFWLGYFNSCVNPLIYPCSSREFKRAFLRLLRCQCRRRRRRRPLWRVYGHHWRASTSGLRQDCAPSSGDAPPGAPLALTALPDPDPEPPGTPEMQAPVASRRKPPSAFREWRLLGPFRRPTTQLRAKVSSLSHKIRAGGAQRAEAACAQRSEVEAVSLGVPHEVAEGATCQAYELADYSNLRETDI
Excerpt: 6-C. […] For this purpose sDNA of human α1D receptor is expressed in HEK-293 cells, as it was described in [TL Theroux, TA Esbenshade, RD Peavy and KP Minneman. Coupling efficiencies of human alpha 1-adrenergic receptor subtypes: titration of receptor density and responsiveness with inducible and repressible expression vectors. Mol Pharmacol.; 50: 1376-1387, 1996]. […] Characterization of an α1D-adrenoceptor mediating the contractile response of rat aorta to noradrenaline. […] Prazosin is used as positive control.

human D2S receptor = biological target: T3, human D2S receptor (Homo sapiens, UniProt P14416); test: Radioligand binding to dopamine receptor D2S ([3H] Spiperone, CHO membranes)
T3 construct: expressed in transfected cells; host or cells: CHO
T3 sequence (P14416 1-414 isoform P14416-2): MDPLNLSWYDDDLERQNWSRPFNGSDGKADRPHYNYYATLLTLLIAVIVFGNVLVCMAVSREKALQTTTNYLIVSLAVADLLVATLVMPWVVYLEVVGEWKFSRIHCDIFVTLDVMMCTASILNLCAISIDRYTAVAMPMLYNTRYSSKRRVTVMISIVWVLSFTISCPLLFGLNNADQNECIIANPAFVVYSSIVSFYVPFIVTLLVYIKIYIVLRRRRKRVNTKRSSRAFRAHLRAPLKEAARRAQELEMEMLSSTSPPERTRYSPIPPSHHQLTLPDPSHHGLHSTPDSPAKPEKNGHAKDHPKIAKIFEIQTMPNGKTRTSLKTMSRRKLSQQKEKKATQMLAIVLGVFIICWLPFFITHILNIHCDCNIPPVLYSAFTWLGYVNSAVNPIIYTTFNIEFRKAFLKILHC
Excerpt: 7-C. […] For this purpose sDNA of human D2S receptor is expressed in CHO cells, as described in [Hayes G, Biden TJ, Selbie LA and Shine J, Structural subtypes of the dopamine D2 receptor are functionally distinct. […] Mol Endocrinol. […] Mol Endocrinol. […] Spiperone is used as positive control.

human D1 receptor = biological target: T4, human D1 receptor (Homo sapiens, UniProt P21728); test: Radioligand binding to dopamine receptor D1 ([3H] SCH-23390, CHO membranes); details: for inhibition at 10 µM: read-out: Dopamine receptors, % inhibition D1
T4 construct: expressed in transfected cells; host or cells: CHO
T4 sequence (P21728 whole entry): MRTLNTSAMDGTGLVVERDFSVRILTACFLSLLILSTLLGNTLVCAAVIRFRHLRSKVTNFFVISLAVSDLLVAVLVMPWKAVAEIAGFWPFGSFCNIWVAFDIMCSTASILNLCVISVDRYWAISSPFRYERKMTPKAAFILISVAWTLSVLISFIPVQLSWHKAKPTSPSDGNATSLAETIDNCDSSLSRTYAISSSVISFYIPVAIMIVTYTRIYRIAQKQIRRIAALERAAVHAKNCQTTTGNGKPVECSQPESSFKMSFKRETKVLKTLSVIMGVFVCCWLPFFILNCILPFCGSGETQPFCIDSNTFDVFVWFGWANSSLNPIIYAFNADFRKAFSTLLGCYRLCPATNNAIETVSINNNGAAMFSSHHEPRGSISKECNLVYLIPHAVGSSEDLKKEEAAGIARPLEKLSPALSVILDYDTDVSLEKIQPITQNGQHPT
Excerpt: For this purpose sDNA of human D1 receptor is expressed in CHO cells, as it was described in [Dearry A, Gingrich JA, Falardeau P, Fremeau RT Jr, Bates MD and Caron MG. Molecular cloning and expression of the gene for a human D1 dopamine receptor. Nature. […] Nature.

human D4.2 receptor = biological target: T5, human D4.2 receptor (Homo sapiens, UniProt P21917, DEL265-296); test: Radioligand binding to dopamine receptor D4.2 ([3H] Spiperone, CHO-K1 membranes); details: read-out: Dopamine receptors, % inhibition D4.2
T5 construct: expressed in transfected cells; host or cells: CHO-K1
T5 sequence (P21917 with tags, fused parts or gaps DEL265-296): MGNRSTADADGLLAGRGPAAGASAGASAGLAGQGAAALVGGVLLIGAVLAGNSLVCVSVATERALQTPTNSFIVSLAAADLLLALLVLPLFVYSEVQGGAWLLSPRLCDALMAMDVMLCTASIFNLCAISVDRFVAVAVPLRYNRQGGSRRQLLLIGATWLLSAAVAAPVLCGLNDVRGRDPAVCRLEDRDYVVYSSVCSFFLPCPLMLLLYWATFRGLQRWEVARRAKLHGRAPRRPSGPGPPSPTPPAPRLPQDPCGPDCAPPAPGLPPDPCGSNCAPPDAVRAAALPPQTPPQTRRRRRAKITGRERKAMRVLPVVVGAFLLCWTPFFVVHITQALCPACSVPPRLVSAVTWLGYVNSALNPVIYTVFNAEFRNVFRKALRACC
Procedure: Screening of the disclosed compounds for potential ability to interact with dopamine receptor D4.2 is carried out by method of radioligand binding. […] From the cells transfected in this way membrane species are prepared by homogenization of these cells in glass homogenizer with the subsequent separation of plasmatic membranes from cell nuclei, mitochondrias and cell wreckages by differential centrifugation. […] After incubation samples are filtered in vacuo on glass-microfiber filters G/F (Millipor, USA), filters are washed three times with cold solution of medium and radioactivity is measured by scintillation counter MicroBeta 340 (Perkin Elmer, USA). Nonspecific binding which makes up 10% of the overall binding is determined by incubation of membrane species with radioligand in the presence of 10 µM of Haloperidol.
Spiperone is used as positive control. Tested compounds' binding to the receptor is determined by their ability to displace radioligand and expressed in percent of displacement (%I). Values of %I are calculated according to the following equation: %I = (TA-CA)/(TA-NA)*100, [formula] wherein: TA - is overall radioactivity in the presence of radioligand only, CA - is radioactivity in the presence of radioligand and tested compound and NA - is radioactivity in the presence of radioligand and Haloperidol (10 µM).

[1] = biological target: T6, serotonin receptor 5-HT1B (Rattus norvegicus, UniProt P28564); test: Radioligand binding to serotonin receptor 5-HT1B ([125I] cyanopindolol, rat brain cortex membranes)
T6 construct: membrane species are prepared from rat brains (Wistar) by homogenization of species of rat brain-cortices; from tissue; host or cells: rat (Wistar) brain cortex
T6 sequence (P28564 whole entry): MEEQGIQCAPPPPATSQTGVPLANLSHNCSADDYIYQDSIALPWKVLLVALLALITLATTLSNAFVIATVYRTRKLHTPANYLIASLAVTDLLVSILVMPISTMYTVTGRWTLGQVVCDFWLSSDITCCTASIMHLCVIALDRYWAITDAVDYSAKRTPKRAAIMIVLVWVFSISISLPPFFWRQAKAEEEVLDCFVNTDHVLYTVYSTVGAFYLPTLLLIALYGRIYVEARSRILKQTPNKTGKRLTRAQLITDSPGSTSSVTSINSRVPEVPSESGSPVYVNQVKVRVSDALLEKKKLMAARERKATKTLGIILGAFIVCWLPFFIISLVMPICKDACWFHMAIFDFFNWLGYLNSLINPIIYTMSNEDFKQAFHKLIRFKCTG
Excerpt: Serotonin is used as positive control.

human 5-HT7 receptor = biological target: T7, human 5-HT7 receptor (Homo sapiens, UniProt P34969); test: Radioligand binding to serotonin receptor 5-HT7 ([3H] Lysergic acid diethylamide, CHO membranes)
T7 construct: expressed in transfected cells; host or cells: CHO
T7 sequence (P34969 whole entry): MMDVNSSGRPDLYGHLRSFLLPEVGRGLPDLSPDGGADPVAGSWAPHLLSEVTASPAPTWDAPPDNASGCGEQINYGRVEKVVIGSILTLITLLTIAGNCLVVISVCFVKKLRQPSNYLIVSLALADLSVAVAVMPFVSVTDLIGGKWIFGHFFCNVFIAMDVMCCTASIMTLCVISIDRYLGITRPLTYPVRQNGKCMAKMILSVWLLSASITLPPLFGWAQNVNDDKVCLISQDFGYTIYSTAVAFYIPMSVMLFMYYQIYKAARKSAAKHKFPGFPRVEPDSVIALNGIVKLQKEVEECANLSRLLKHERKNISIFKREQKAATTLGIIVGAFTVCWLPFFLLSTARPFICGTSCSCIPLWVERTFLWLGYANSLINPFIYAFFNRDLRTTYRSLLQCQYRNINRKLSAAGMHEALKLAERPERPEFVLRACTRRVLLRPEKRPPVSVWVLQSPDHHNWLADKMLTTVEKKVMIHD
Excerpt: For this purpose sDNA of human 5-HT7 receptor is expressed in CHO cells as it was described in [Shen Y, Monsma FJ Jr, Metcalf MA, Jose PA, Hamblin MW, and Sibley DR. […] J. Biol. Chem. 1993, 268, 18200 - 18204]. […] J. Pharmacol. Exp. Ther. 1994, 268:1403-1410]. […] Methiothepin is used as positive control.

[2] = biological target: T8, recombinant human 5-HT2A receptor (Homo sapiens, UniProt P28223); test: Radioligand binding to serotonin receptor 5-HT2A ([3H] Ketanserin, CHO-K1 membranes); details: for inhibition at 10 µM / 5-HT2A % inhibition: 10 µM ligand
T8 construct: expressed in transfected cells; host or cells: CHO-K1
T8 sequence (P28223 whole entry): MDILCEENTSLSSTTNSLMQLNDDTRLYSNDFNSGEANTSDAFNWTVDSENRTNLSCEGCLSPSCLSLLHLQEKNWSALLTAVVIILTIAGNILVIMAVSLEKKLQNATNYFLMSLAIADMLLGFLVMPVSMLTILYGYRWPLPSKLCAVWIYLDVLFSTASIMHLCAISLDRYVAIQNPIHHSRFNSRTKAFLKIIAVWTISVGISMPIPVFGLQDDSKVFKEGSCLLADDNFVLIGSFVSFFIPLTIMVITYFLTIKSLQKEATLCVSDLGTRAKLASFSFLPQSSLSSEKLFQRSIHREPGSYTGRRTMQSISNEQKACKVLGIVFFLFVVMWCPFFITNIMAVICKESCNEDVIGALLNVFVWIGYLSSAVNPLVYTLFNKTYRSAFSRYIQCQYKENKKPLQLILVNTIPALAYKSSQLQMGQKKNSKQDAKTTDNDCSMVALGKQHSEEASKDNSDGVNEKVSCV
Excerpt: 9-C. […] J Neurochem. […] Ketanserin is used as positive control.

[3] = biological target: T9, recombinant human 5-HT2B receptor (Homo sapiens, UniProt P41595); test: Radioligand binding to serotonin receptor 5-HT2B ([3H] Lysergic acid diethylamide, CHO-K1 membranes)
T9 construct: expressed in transfected cells; host or cells: CHO-K1
T9 sequence (P41595 whole entry): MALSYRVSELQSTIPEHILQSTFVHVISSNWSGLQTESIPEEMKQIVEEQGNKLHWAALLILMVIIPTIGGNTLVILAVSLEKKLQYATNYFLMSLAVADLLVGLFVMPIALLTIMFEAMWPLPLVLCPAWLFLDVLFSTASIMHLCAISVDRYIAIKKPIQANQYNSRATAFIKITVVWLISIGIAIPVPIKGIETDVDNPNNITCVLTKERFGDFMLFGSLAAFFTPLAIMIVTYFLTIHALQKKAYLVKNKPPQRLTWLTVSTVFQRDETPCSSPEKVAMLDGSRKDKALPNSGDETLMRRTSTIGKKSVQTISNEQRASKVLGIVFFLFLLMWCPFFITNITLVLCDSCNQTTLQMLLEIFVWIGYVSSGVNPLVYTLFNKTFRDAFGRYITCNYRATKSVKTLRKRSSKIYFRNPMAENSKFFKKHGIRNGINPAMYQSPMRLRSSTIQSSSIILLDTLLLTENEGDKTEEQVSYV
Procedure: For this purpose membrane species are prepared from CHO-K1 cells comprising recombinant human 5-HT2B receptor by homogenization of recombinant cells in glass homogenizer with the subsequent separation of plasmatic membranes from cell nuclei, mitochondrias and cell wreckages by differential centrifugation. […] After incubation the samples are filtered in vacuo on glass-microfiber filters G/F (Millipor, USA), filters are washed three times with cold solution of medium and radioactivity is measured by scintillation counter MicroBeta 340 (Perkin Elmer, USA). […] Ketanserin is used as positive control. The tested compounds' binding to the receptor is determined by their ability to displace the radioligand and is expressed in percent of displacement (%I). Values of %I are calculated according to the following equation: %I = (TA-CA)/(TA-NA)*100, [formula] wherein: TA - is the overall radioactivity in the presence of radioligand only, CA - is the radioactivity in the presence of radioligand and tested compound and NA - is the radioactivity in the presence of radioligand and Serotonin (10 µM).

[4] = read-out: Dopamine receptors, % inhibition D3
[5] = read-out: α-Adrenoceptor, % inhibition α1D
[6] = read-out: Dopamine receptors, % inhibition D2S

In the case of `Cc1ccc2c(c1)[C@@H]1CN(C)CCC[C@@H]1N2CCc1cccnc1` (relative stereo) [1.6.1(1)·3HCl], the inhibition at 10 µM (human D3 receptor; [4]) is reported as 34%, the inhibition at 10 µM (human α1D receptor; [5]) is reported as 90% and the inhibition at 10 µM (human D2S receptor; [6]) is reported as 42%. It also gave an inhibition at 10 µM (human D1 receptor) of 59% and an inhibition at 10 µM (human D4.2 receptor) of -6%.
`Cc1ccc2c(c1)[C@@H]1CN(C)CCC[C@@H]1N2CCc1ccc(C)nc1` (relative stereo) [1.6.1(2)·3HCl] gave an inhibition at 10 µM (human D3 receptor; [4]) of 41%, an inhibition at 10 µM ([1]; read-out: 5-HT1B % inhibition) of -6% and an inhibition at 10 µM (human α1D receptor; [5]) of 87%. For the same compound, the inhibition at 10 µM (human 5-HT7 receptor; read-out: 5-HT7 % inhibition) was 8%, the inhibition at 10 µM (human D2S receptor; [6]) was 31% and the inhibition at 10 µM (human D1 receptor) was 55%. For the same compound, the inhibition at 10 µM (human D4.2 receptor) was -11%, the inhibition at 10 µM [2] was -4% and the inhibition at 10 µM ([3]; read-out: 5-HT2B % inhibition) was -2%.
For `Cc1ccc2c(c1)c1c(n2CCc2ccccc2)CCN(C)C1` [1.1.2(1-2)·HCl, 2,8-dimethyl-5-phenethyl-1,2,3,4-tetrahydro-1H-pyrido[4,3-b]indole hydrochloride], the inhibition at 10 µM ([1]; read-out: 5-HT1B % inhibition) was 82%, the inhibition at 10 µM (human α1D receptor; [5]) was 102% and the nH ([3]; 5-HT2B) was 0,868. For the same compound, the inhibition at 10 µM ([3]; read-out: 5-HT2B % inhibition) was 100%.
With `Cc1ccc(CCn2c3c(c4cc(C)ccc42)CN(C)CC3)cc1` [1.1.2(1-3), 2,8-dimethyl-5-[2-(4-methylphenyl)-ethyl]-1,2,3,4-tetrahydro-1H-pyrido[4,3-b]indole] the 5-HT1B % inhibition ([1]; 10 µM ligand) was 59%, the nH (human α1D receptor) was 1,21 and the 5-HT7 % inhibition (human 5-HT7 receptor; 10 µM ligand) was 98%. The 5-HT2A % inhibition [2] was 98% and the 5-HT2B % inhibition ([3]; 10 µM ligand) was 95%.
In the case of `Cc1ccc2c(c1)c1c(n2CCc2ccccn2)CCN(C)C1` [1.1.2(2-3)·2HCl], the inhibition at 3 µM (human D3 receptor; [4]) is reported as 78%, the inhibition at 1 µM ([1]; read-out: 5-HT1B % inhibition) is reported as 65% and the inhibition at 10 µM (human α1D receptor; [5]) is reported as 92%. The inhibition at 3 µM (human D2S receptor; [6]) was 77%, the inhibition at 10 µM (human D1 receptor) was 70% and the inhibition at 100 µM (human D4.2 receptor) was 71%. For the same compound, the nH ([3]; 5-HT2B) was 0.913 and the inhibition at 1 µM ([3]; read-out: 5-HT2B % inhibition) was 89%.
Compound `Cc1ccc2c(c1)c1c(n2CCc2ccc(C)nc2)CCN(C)C1` [1.1.2(4-2)·2HCl] has an inhibition at 10 µM (human D3 receptor; 10 µM ligand, read-out: Dopamine receptors, % inhibition D3) of 64%, an inhibition at 10 µM ([1]; 10 µM ligand, read-out: 5-HT1B % inhibition) of 19% and an inhibition at 10 µM (human 5-HT7 receptor; 10 µM ligand, read-out: 5-HT7 % inhibition) of 96%. For the same compound, the “Dopamine receptors, % inhibition D2S” value (human D2S receptor; 10 µM ligand) was 80%, the Ki (human D2S receptor; Receptor D2S) was 629 nM and the nH (human D2S receptor; Receptor D2S) was 0.724. It also gave an inhibition at 10 µM (human D1 receptor; 10 µM ligand) of 82%, an inhibition at 10 µM (human D4.2 receptor; 10 µM ligand) of 54% and an inhibition at 10 µM ([3]; 10 µM ligand, read-out: 5-HT2B % inhibition) of 47%.
`Cc1ccc2c(c1)c1c(n2CCc2ccccn2)CCCN(C)C1` [1.2.2(2-2)] was tested, and the 5-HT1B % inhibition ([1]; 10 µM ligand) was 6%, the “α-Adrenoceptor, % inhibition α1D” value (human α1D receptor; 10 µM ligand) was 63% and the 5-HT7 % inhibition (human 5-HT7 receptor; 10 µM ligand) was 74%. For the same compound, the 5-HT2A % inhibition [2] was 46%.
`CN1CCc2c(c3ccccc3n2Cc2ccccc2)C1` [1.9(1)·1/2NDSA, bis-(5-benzyl-2-methyl-2,3,4,5-tetrahydro-1H-pyrido[4,3-b]indole) naphthalene-1,5-disulfonate] showed a nH (human D3 receptor; Receptor D3) of 1.04, an inhibition at 10 µM (human D3 receptor; [4]) of 65% and an inhibition at 0.3 µM ([1]; read-out: 5-HT1B % inhibition) of 4%. For the same compound, the nH (human α1D receptor) was 1,05, the inhibition at 3 µM (human α1D receptor; [5]) was 70% and the nH (human D2S receptor; Receptor D2S) was 0.879. It also gave an inhibition at 10 µM (human D2S receptor; [6]) of 51%, an IC50 (human D1 receptor; Receptor D1) of 3660 nM and a Ki (human D1 receptor; Receptor D1) of 1830 nM. The nH (human D1 receptor; Receptor D1) was 1.38, the inhibition at 10 µM (human D1 receptor) was 77% and the IC50 ([3]; 5-HT2B) was 31.4 nM. It also gave a Ki ([3]; 5-HT2B) of 20 nM and a nH ([3]; 5-HT2B) of 0.552.
Compound `CN1CCc2c(c3ccccc3n2Cc2ccccc2)C1.Cl` [1.9(1)·HCl, 5-benzyl-2-methyl-2,3,4,5-tetrahydro-1H-pyrido[4,3-b]indole hydrochloride] has an inhibition at 10 µM ([1]; read-out: 5-HT1B % inhibition) of 13%, an inhibition at 0.3 µM (human 5-HT7 receptor; read-out: 5-HT7 % inhibition) of 76% and an inhibition at 10 µM (human 5-HT7 receptor; read-out: 5-HT7 % inhibition) of 91%. It also gave an inhibition at 0.1 µM ([2]; 0.1µM ligand) of 68%, an inhibition at 10 µM [2] of 96% and a nH ([2]; 5-HT2A) of 0.765. It also gave a nH ([3]; 5-HT2B) of 0.836 and an inhibition at 10 µM ([3]; read-out: 5-HT2B % inhibition, 10 µM ligand) of 99%.
